Laboratory results taken from ChEMBL document CHEMBL5226289, “Discovery of natural anti-inflammatory alkaloids: Potential leads for the drug discovery for the treatment of inflammation” (Eur J Med Chem, 2021).
Residues, ends and D or L forms follow the SMILES beside them. *: point of attachment. Cbz = O=C(OCc1ccccc1)*

System: not listed separately
Assay: Inhibition of NO production in LPS-stimulated mouse BV-2 cells incubated for 24 hrs by Griess reagent-based assay
Type: functional, cell-based
Details: BV-2, 24 h

IC50	Compound
4.2 µM	CC(=O)O[C@@H]1CC2C3CCCN4CCCC1C34C[C@H](C)[C@H]2O (stereo not given in full)
4.2 µM	CC(=O)O[C@@H]1C2C[C@@H](OC(C)=O)C3CCCN4CCC[C@@]2(O)C34C[C@@H]1C (stereo not given in full)
4.2 µM	C[C@@H]1CC2CC(=O)C3CCCN4CC[C@@H](O)[C@]2(O)C34C1 (stereo not given in full)
4.2 µM	C[C@@H]1CC2CC(=O)C3CCCN4CCC[C@@]2(O)C34C1 (stereo not given in full)
4.2 µM	C[C@H]1CC23C4CCCN2CCCC3[C@H](O)CC4[C@H]1O (stereo not given in full)

Compound	IC50
C[C@@H]1CC2CC(=O)C3CCCN4CCCC2C34C1 (stereo not given in full)	4.2 µM

System: Mus musculus
Assay: Antiinflammatory activity in carrageenan-induced peritoneal Swiss albino mouse model assessed as decrease in number of leukocyte cells at 100 umol/kg, po pre-treated for 30 mins followed by carrageenan induction and measured after 4 hrs relative to control
Type: functional
Design: scale not given: the % may be the effect or the level left
Details: dose 100 µmol/kg, time 4.5 hrs

Compound	Activity
COc1ccc2c(c1)c(CC(=O)O)c(C)n2C(=O)c1ccc(Cl)cc1 [INDOMETHACIN]	72.1%

System: not listed separately
Assay: Inhibition of IL6 production in LPS-stimulated human PBMC cells
Type: functional, cell-based
Details: not given

IC50	Compound
8.4 µM	COc1cc(C)cc2c1[nH]c1ccccc12 [MURRAYAFOLINE A]
8.4 µM	COc1ccc2c(c1)[nH]c1c3c(c(C)cc12)OC(C)(C)C=C3

System: RAW264.7
Assay: Inhibition of NO production in LPS-induced mouse RAW264.7 cells
Type: functional, cell-based
Details: not given

Compound	IC50
CN1CCc2cc3c(c4c2[C@H]1Cc1c(O)cccc1-4)OCO3	1.39 µM
COC1=C[C@@]23CCN(C)[C@@H](Cc4c(CN5CCc6cc(OC)c(OC)c7c6[C@H]5CC75C=CC(=O)C=C5)cc(OC)c(O)c42)C3=CC1=O	1.39 µM

Further lines, results first:

IC50	Compound
22.8 µM	O=C(O)c1cc(C(=O)c2ccco2)n2c1CCC2
14.3 µM	C[C@@H]1C[C@@H]2CC[C@@H]3[C@@H](C(=O)C[C@@H]4N5CCCC5C[C@H](C)[C@@]4(O)c4ccccc4)[C@](C)(O)C[C@H](N23)[C@@]1(O)c1ccccc1 (stereo not given in full)
47 µM	C[C@@H]1C[C@H]2[C@@H]3CCC4=CC(=O)C=C[C@]4(C)[C@@]3(F)[C@@H](O)C[C@]2(C)[C@@]1(O)C(=O)CO [DEXAMETHASONE]
16.1 µM	C[C@@H]1C[C@@H]2CCCN2[C@H](CC(=O)C[C@H]2N3CCC[C@H]3C[C@@H](C)[C@]2(O)c2ccccc2)[C@H]1c1ccccc1

System: not listed separately
Assay: Inhibition of NO production in LPS-stimulated mouse BV-2 cells preincubated with compound for 1 hrs followed by LPS stimulation and measured after 24 hrs by Griess reagent-based assay
Type: functional, cell-based
Details: not given

Compound	IC50
COc1ccc2c(c1)[nH]c1cc(OC)c(C(=O)O)cc12 [CLAUSINE K]	4.6 µM
O=Cc1cc2c(cc1O)[nH]c1cc(O)ccc12 [CLAUSINE O]	6.4 µM
COc1c(CC=C(C)C)c(C=O)cc2c1[nH]c1cc(O)ccc12	10.9 µM

Further lines, results first:

IC50	Compound
1.1 µM	CO[C@H]1[C@@H]2C[C@]34CCCCCCCCCCn5ccc2c5C(=O)[C@@H]3[C@H]2C(O)C/C=C\C/C=C\CCC[N@@+]21C4 (stereo not given in full)
2.1 µM	CO[C@H]1[C@@H]2C[C@]34CCCCCCCCCCn5ccc2c5C(=O)[C@@H]3[C@H]2[C@H](O)CCCCCCCC[N@@+]21C4

System: RAW264.7
Assay: Antiinflammatory activity against mouse RAW264.7 cells assessed as inhibition of cell growth
Type: functional, cell-based
Details: not given

Compound	IC50
Cc1ccc(-c2cc(C(F)(F)F)nn2-c2ccc(S(N)(=O)=O)cc2)cc1 [CELECOXIB]	34.3 µM

Molecular target: Prostaglandin G/H synthase 1 (Homo sapiens, UniProt P23219)
Assay: Inhibition of COX-1 (unknown origin) using arachidonic acid as substrate at 100 uM preincubated for 5 mins followed by substrate addition and measured after 15 mins relative to control
Details: time 20.0 min

Sequence of Prostaglandin G/H synthase 1 (P23219 whole entry): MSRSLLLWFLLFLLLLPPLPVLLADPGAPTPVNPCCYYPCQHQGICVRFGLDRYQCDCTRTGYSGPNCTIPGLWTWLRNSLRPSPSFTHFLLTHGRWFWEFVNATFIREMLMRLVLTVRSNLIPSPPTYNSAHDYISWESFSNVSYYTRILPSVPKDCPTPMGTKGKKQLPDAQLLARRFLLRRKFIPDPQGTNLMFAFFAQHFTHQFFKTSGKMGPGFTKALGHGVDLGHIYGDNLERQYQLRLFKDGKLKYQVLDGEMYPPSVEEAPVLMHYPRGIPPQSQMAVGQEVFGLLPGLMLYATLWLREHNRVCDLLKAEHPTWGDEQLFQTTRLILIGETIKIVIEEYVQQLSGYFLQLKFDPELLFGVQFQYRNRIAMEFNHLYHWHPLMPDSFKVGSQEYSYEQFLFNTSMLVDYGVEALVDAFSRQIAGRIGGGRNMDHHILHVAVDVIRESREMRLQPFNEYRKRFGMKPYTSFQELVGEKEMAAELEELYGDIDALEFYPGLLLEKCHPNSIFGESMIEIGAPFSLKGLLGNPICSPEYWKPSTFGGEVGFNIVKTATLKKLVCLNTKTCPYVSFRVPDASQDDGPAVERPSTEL

inhibition	Compound
> 64%	COc1cc2c(cc1OC)[C@H]1CCN(C2)C(=O)[C@@H](O)[C@H](O[C@@H]2O[C@H](C)[C@@H](OC)[C@H](OC)[C@H]2OC)CC1=O
> 64%	COc1c2c(cc3c1OCO3)[C@H]1CCN(C2)C(=O)[C@@H](O)[C@H](O[C@@H]2O[C@H](CO)[C@@H](OC)[C@H](OC)[C@H]2OC)CC1=O
> 64%	COc1cc2c(cc1O)CN1CC[C@H]2C(=O)C[C@@H](O[C@@H]2O[C@H](CO)[C@@H](OC)[C@H](OC)[C@H]2OC)[C@H](O)C1=O
> 64%	COc1cc2c(cc1OC)[C@H]1CCN(C2)C(=O)[C@@H](O)[C@H](O[C@@H]2O[C@H](C)[C@@H](OC)[C@@H]3OCOCO[C@@H]23)CC1=O
> 64%	CO[C@H]1[C@@H]2OCOCO[C@H]2[C@H](O[C@@H]2CC(=O)[C@@H]3CCN(Cc4cc5c(cc43)OCO5)C(=O)[C@H]2O)O[C@@H]1C

System: RAW264.7
Assay: Antiinflammatory activity against LPS-stimulated mouse RAW264.7 cells assessed as inhibition of IL-1beta production at 20 uM preincubated for 27 hrs followed by LPS stimulation and measured after 12 hrs by ELISA analysis relative to control
Type: functional
Details: time 39 hrs

Compound	inhibition at 20 µM
CC1(C)C=Cc2c(ccc3c2NC(=O)[C@@]32C[C@]34NC(=O)[C@]5(CCCN5C3=O)C[C@H]4C2(C)C)O1	> 32.6%
CC1(C)C=Cc2c(ccc3c4c(n(S(C)(=O)=O)c23)C(C)(C)[C@@H]2C[C@]35CCCN3C(=O)[C@]2(C4)NC5=O)O1	> 32.6%
C=CC(C)(C)[C@@]1(C[C@@H]2NC(=O)[C@@H]3CCCN3C2=O)C(=O)Nc2c1ccc(O)c2CC=C(C)C	> 32.6%
CC1(C)C=Cc2c(ccc3c4c([nH]c23)C(C)(C)[C@@H]2C[C@]35CCCN3C(=O)[C@]2(C4)NC5=O)O1	> 32.6%

System: RAW264.7
Assay: Inhibition of NO production in LPS-stimulated mouse RAW264.7 cells preincubated with compound for 1 hrs followed by LPS stimulation and measured after 24 hrs by Griess reagent-based assay
Type: functional, cell-based
Details: not given

IC50	Compound
31.9 µM	O=C1NCCc2c1[nH]c1ccc(O)cc21
25.2 µM	O=C1CC[C@H]2c3[nH]c4ccc(O)cc4c3CCN12

System: not listed separately
Assay: Inhibition of TNF-alpha production in LPS-stimulated human PBMC cells
Type: functional, cell-based
Details: not given

IC50	Compound
7 µM	COc1cc(C)cc2c1[nH]c1ccccc12 [MURRAYAFOLINE A]
9.4 µM	COc1ccc2c(c1)[nH]c1c3c(c(C)cc12)OC(C)(C)C=C3
10 µM	COc1cc(Cc2ccc3c(c2)[nH]c2c4c(c(C)cc23)OC(C)(CCC=C(C)C)C=C4)cc2c1[nH]c1ccccc12 (stereo not given)

System: RAW264.7
Assay: Inhibition of NO production in LPS-stimulated mouse RAW264.7 cells incubated for 24 hrs by Griess reagent-based assay
Type: functional, cell-based
Details: RAW264.7, 24 h

Compound	IC50
O=C(OC[C@@H]1CCN2CCC[C@H]12)c1ccccc1	25.5 µM
O=c1c(CO)ccc2n1CCc1c-2[nH]c2ccccc12	12 µM
C=Cc1cncc2c1CC1c3[nH]c4ccccc4c3CCN1C2=O (stereo not given)	1.6 µM
CN1CCc2cc3c(c4c2[C@H]1Cc1ccccc1-4)OCO3	1.39 µM
N=C(N)NN [PIMAGEDINE]	1.8 µM
O=C1c2ccccc2-c2c3c(cc4ccnc1c24)OCO3 [LIRIODENINE]	1.39 µM
C/C=C(/C)C(=O)O[C@@H]1CC[N+]2([O-])CC=C(COC(=O)[C@](O)(C(C)C)[C@H](C)OC)[C@H]12 (stereo not given in full)	105 µM

Continued, values first:

IC50	Compound
1.3 µM	Cc1cncc2c1CC1c3[nH]c4ccccc4c3CCN1C2=O (stereo not given)
38.6 µM	CC[C@@H](C)[C@@H](C)C(=O)OC/C=C(\C)C(=O)OC[C@@H]1CCN2CCC[C@H]12
7.7 µM	O=C1C=CC2=NC=CC3c4ccc(O)cc4N1C23 (stereo not given)
9.1 µM	O=C1C=CC2=NC=CC3c4ccccc4N1C23 (stereo not given)
1.39 µM	CC[C@H](C)CN1C(=O)c2cc3c(cc2[C@@]24C=C[C@@H](OC)C[C@@H]2N(C)C(=O)[C@@H]14)OCO3
15.1 µM	C[C@@H](O)C1=CC2=NC=CC3c4ccccc4N(C1=O)C23 (stereo not given in full)
12 µM	O=C1C=CC2=NC=CC3c4cc(O)ccc4N1C23 (stereo not given)
2.4 µM	C/C=C1/CN2CC[C@@H]1C(=O)c1[nH]c3ccc(OC)cc3c1C2
3.6 µM	C/C=C1\CO[C@H](OC)c2c1cc1n(c2=O)CCc2c-1[nH]c1ccccc21
0.8 µM	Cc1[nH]c(C=O)c2c1C(=O)N1CCC3(C(=O)Nc4ccccc43)C1C2 (stereo not given)
3.4 µM	C[C@]12CCC(=O)C=C1CC[C@@H]1[C@@H]2[C@@H](O)C[C@@]2(C)[C@H]1CC[C@]2(O)C(=O)CO [HYDROCORTISONE]
1.39 µM	CO[C@@H]1C=C[C@@]23c4cc5c(cc4C(=O)N(CCc4ccccc4)[C@@H]2C(=O)N(C)[C@H]3C1)OCO5

System: HEp-2
Assay: Cytotoxicity against human HEp-2 cells assessed as inhibition of cell growth incubated for 48 hrs by MTT assay
Type: functional, cell-based
Details: HEp-2, 48 h, pooled result: one value given for 7 cell lines, strains, targets or settings

Compound	IC50
COC1=CC(=O)c2cc3c4c(cc(O)c(OC)c4c2C1=O)CCN3C	8.7 µM
COC1=CC(=O)c2cc3c4c(cc(OC)c(OC)c4c2C1=O)CCN3C	10.5 µM
COc1ccc2c(cc3c4c(cc5c(c42)OCO5)CCN3C)c1O	28.9 µM

System: RAW264.7
Assay: Antiinflammatory activity against LPS-stimulated mouse RAW264.7 cells assessed as inhibition of TNFalpha production at 20 uM preincubated for 27 hrs followed by LPS stimulation and measured after 12 hrs by ELISA analysis relative to control
Type: functional
Details: time 39 hrs

Compound	inhibition at 20 µM
CC1(C)C=Cc2c(ccc3c2NC(=O)[C@@]32C[C@]34NC(=O)[C@]5(CCCN5C3=O)C[C@H]4C2(C)C)O1	> 32.6%
CC1(C)C=Cc2c(ccc3c4c(n(S(C)(=O)=O)c23)C(C)(C)[C@@H]2C[C@]35CCCN3C(=O)[C@]2(C4)NC5=O)O1	> 32.6%
C=CC(C)(C)[C@@]1(C[C@@H]2NC(=O)[C@@H]3CCCN3C2=O)C(=O)Nc2c1ccc(O)c2CC=C(C)C	> 32.6%
CC1(C)C=Cc2c(ccc3c4c([nH]c23)C(C)(C)[C@@H]2C[C@]35CCCN3C(=O)[C@]2(C4)NC5=O)O1	> 32.6%

System: not listed separately
Assay: Antiinflammatory activity in rat polymorphonuclear leucocyte cells assessed as inhibition of PAF-induced beta-glucuronidase release at 10 uM relative to control
Type: functional
Details: not given

Compound	inhibition at 10 µM
COC1O[C@H]([C@H]2c3cc4c(cc3CCN2C)OCO4)c2ccc3c(c21)OCO3 (stereo not given in full)	37.7%
CN1CCc2cc3c(cc2[C@@H]1[C@H]1OC(O)c2c1ccc1c2OCO1)OCO3 (stereo not given in full)	36.5%
CN1Cc2cc3c(cc2Cc2ccc4c(c2C1)OCO4)OCO3	39.6%
C[C@@H]1C(=O)O[C@H]2C(O)C34[C@H]5C[C@@H](C(C)(C)C)[C@]36[C@@H](OC(=O)[C@@H]6O)O[C@@]4(C(=O)O5)[C@@]12O (stereo not given in full)	51.3%
CN1CCc2cc3c(cc2[C@@H]1[C@H]1OC(=O)c2c1ccc1c2OCO1)OCO3	34.8%

System: RAW264.7
Assay: Antiinflammatory activity against LPS-stimulated mouse RAW264.7 cells assessed as inhibition of IL-6 production incubated for 24 hrs by ELISA analysis relative to control
Type: functional
Details: not given

Compound	inhibition (INH)
O=c1cccc2n1C[C@@H]1CCCN3CCC[C@@H]2[C@H]13	>40%
O=C1C(O)=CC[C@@H]2[C@H]3CCCN4CCC[C@@H](CN12)[C@@H]34	>40%
O=C1C=CC[C@@H]2[C@H]3CCCN4CCC[C@@H](CN12)[C@@H]34 [SOPHOCARPINE]	>40%
O=c1cccc2n1C[C@@H]1C[C@H]2CN2CCCC[C@@H]12	>40%

System: RAW264.7
Assay: Antiinflammatory activity in mouse RAW264.7 cells assessed as inhibition of LPS-stimulated iNOS activity preincubated with compound for 24 hrs followed by LPS stimulation for 2 hrs and measured 2 hrs after NADPH addition by fluorescence based assay
Type: functional, cell-based
Details: not given

IC50	Compound
0.2 µM	CC(C)C[C@@H](C=O)NC(=O)[C@H](CC(C)C)NC(=O)[C@H](CC(C)C)NC(=O)OCc1ccccc1 [MG-132] (Cbz-Leu-Leu-Leu-aldehyde)

System: RAW264.7
Assay: Antiinflammatory activity against LPS-stimulated mouse RAW264.7 cells assessed as inhibition of TNF-alpha production incubated for 24 hrs by ELISA analysis relative to control
Type: functional
Details: not given

Compound	inhibition (INH)
O=c1cccc2n1C[C@@H]1CCCN3CCC[C@@H]2[C@H]13	>40%
O=C1C(O)=CC[C@@H]2[C@H]3CCCN4CCC[C@@H](CN12)[C@@H]34	>40%
O=C1C=CC[C@@H]2[C@H]3CCCN4CCC[C@@H](CN12)[C@@H]34 [SOPHOCARPINE]	>40%
O=c1cccc2n1C[C@@H]1C[C@H]2CN2CCCC[C@@H]12	>40%
